Test results as given in ChEMBL document CHEMBL3396955, “Discovery of non-electrophilic capsaicinoid-type TRPA1 ligands” (Bioorg Med Chem Lett, 2015).

Assays:
Assay type in all cases: cell-based; call rule not given here
[1] = molecular target: T1, Transient receptor potential cation channel subfamily A member 1 (Rattus norvegicus, UniProt Q6RI86); assay: Agonist activity at rat recombinant TRPA1 expressed in HEK293 cells assessed as Ca2+ influx by Fluo-4 dye based assay
[2] = molecular target: T2, Transient receptor potential cation channel subfamily V member 1 (Homo sapiens, UniProt Q8NER1); assay: Agonist activity at human recombinant TRPV1 expressed in HEK293 cells assessed as Ca2+ influx by Fluo-4 dye based assay relative to 4 uM ionomycin
T2 sequence (Q8NER1 whole entry): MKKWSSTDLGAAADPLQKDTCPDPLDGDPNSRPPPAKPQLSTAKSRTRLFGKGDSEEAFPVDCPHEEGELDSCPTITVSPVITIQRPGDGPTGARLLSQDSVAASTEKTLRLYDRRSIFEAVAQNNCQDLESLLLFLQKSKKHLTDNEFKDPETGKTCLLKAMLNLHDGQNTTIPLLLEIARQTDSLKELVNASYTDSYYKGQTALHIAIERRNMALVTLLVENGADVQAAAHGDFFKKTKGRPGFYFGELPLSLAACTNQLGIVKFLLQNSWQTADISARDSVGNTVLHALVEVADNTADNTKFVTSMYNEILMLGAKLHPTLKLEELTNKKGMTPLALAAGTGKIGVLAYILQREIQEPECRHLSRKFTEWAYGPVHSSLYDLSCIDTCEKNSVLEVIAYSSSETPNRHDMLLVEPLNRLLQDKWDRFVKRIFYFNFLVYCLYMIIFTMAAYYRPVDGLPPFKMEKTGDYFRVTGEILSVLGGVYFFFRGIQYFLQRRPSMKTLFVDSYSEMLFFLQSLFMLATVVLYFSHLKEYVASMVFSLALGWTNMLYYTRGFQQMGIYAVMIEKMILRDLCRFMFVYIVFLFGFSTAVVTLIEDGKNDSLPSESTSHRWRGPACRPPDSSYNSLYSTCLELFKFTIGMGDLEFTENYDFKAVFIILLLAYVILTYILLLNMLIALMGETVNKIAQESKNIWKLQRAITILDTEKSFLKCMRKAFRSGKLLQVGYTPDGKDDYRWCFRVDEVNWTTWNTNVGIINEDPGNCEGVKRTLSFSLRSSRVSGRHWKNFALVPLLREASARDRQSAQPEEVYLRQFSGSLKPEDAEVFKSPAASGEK

[3] = molecular target: T2, Transient receptor potential cation channel subfamily V member 1; assay: Agonist activity at human recombinant TRPV1 expressed in HEK293 cells assessed as Ca2+ influx by Fluo-4 dye based assay
[4] = molecular target: T2, Transient receptor potential cation channel subfamily V member 1; assay: Antagonist activity against human recombinant TRPV1 expressed in HEK293 cells assessed as inhibition of capsaicin-induced Ca2+ influx pre-treated 5 mins before capsaicin addition by Fluo-4 dye based assay
[5] = molecular target: Transient receptor potential cation channel subfamily A member 1 (Rattus norvegicus) (UniProt Q6RI86); assay: Agonist activity at rat recombinant TRPA1 expressed in HEK293 cells assessed as Ca2+ influx by Fluo-4 dye based assay relative to 100 uM AITC
Chain of Transient receptor potential cation channel subfamily A member 1 (Rattus norvegicus) (Q6RI86 whole entry): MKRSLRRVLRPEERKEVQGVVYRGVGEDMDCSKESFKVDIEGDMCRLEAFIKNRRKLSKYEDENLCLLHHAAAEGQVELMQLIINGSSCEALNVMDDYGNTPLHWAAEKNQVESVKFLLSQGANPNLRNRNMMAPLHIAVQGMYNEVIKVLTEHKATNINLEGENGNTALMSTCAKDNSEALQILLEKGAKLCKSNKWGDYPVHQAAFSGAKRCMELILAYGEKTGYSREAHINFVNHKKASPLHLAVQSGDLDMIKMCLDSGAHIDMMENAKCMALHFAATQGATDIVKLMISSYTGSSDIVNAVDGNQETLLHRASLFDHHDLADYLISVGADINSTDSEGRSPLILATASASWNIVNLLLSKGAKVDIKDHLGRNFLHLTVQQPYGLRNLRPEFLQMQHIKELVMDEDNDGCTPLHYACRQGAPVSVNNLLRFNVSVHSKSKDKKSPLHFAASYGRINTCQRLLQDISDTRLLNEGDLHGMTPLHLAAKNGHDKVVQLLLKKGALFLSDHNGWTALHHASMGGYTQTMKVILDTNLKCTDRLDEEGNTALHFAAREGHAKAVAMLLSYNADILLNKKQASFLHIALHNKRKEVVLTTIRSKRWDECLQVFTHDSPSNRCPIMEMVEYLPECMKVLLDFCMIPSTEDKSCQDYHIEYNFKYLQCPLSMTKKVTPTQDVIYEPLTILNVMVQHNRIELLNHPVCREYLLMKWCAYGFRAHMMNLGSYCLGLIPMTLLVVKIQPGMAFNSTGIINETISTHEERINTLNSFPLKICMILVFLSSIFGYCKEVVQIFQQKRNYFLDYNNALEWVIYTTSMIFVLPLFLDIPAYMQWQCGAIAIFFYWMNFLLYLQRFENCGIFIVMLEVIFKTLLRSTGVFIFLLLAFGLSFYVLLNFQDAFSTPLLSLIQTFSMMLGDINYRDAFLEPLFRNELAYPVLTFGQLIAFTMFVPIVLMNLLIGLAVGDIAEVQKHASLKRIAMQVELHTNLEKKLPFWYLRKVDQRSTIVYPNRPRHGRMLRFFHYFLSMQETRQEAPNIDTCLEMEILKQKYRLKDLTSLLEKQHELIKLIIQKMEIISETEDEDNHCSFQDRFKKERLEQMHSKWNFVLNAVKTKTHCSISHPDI

[6] = molecular target: T1, Transient receptor potential cation channel subfamily A member 1; assay: Antagonist activity against rat recombinant TRPA1 expressed in HEK293 cells assessed as inhibition of AITC-induced Ca2+ influx pre-treated 5 mins before capsaicin addition by Fluo-4 dye based assay

T1 sequence (Q6RI86 whole entry): as above

SMILES	EC50 ([1]; hek293)	Efficacy [2]	EC50 ([3]; read-out: EC50)	IC50 [4]	Efficacy [5]	EC50 ([1]; read-out: EC50)	IC50 [6]	EC50 ([3]; hek293)
COc1cc(CNC(=O)CCCC/C=C/C(C)C)ccc1O [CAPSAICIN]	Not Active	–	–	–	–	–	–	–
CCCCCC[C@@H](O)C/C=C\CCCCCCCCn1nnc(-c2ccc(O)c(OC)c2)n1	–	21%	37.5 µM	57.5 µM	62.6%	36.7 µM	11.2 µM	–
CCCCCC[C@H](C/C=C\CCCCCCCCn1nnc(-c2ccc(O)c(OC)c2)n1)OC(=O)Cc1ccccc1	–	< 10%	–	> 100 µM	72.6%	0.81 µM	2.9 µM	Not Active
C=CCN=C=S	–	–	–	–	38.9%	–	–	–
CCCCCCCC/C=C\CCCCCCCCn1nnc(-c2ccc(O)c(OC)c2)n1	–	24.2%	5.5 µM	> 100 µM	83.1%	0.83 µM	1 µM	–
CCCCCCCCCn1nnc(-c2ccc(O)c(OC)c2)n1	–	28.5%	6.9 µM	36 µM	65.9%	1.41 µM	1.71 µM	–
